Assays:
[1] = target: T1, COX-1 enzyme (Ovis aries, UniProt P05979); test: Cyclooxygenase inhibitory assay (oxygen consumption, arachidonic acid substrate), COX-1; type: biochemical; settings: for COX-1 enzyme inhibition: at 100 ppm (FIG. 1)
T1 sequence (P05979 25-600): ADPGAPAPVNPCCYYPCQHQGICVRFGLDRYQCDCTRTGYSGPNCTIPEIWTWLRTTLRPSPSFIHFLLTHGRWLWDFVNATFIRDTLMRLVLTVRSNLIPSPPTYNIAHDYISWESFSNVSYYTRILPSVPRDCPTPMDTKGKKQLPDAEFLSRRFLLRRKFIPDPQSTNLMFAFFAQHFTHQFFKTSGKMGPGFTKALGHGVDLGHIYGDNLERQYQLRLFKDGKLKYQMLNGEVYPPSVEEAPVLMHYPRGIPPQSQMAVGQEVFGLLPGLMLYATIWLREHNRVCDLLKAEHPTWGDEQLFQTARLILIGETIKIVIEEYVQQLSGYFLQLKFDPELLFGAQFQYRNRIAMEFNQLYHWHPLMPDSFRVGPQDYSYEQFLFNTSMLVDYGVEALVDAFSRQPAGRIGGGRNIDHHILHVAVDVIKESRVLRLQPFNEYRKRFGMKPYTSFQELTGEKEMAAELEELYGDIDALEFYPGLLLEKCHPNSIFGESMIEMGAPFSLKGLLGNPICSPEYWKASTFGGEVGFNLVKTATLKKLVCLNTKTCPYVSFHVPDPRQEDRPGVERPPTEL
Description: (§1) Cyclooxygenase enzyme inhibitory assay of the extracts and compounds were carried out using COX-1 and COX-2 enzymes according to the previously published procedures (Jayaprakasam, B. et al., 2006. J. Agric. Food Chem., 54, 5375-5381).
(§2) Cyclooxygenase Inhibitory Activity. The rate of oxygen consumption during the initial phase of the enzyme-mediated reaction, with arachidonic acid as substrate was measured using a Model 5300 biological oxygen monitor (Yellow Spring Instrument, Inc., Yellow Spring, Ohio). The test compounds, extracts and positive controls were dissolved in DMSO and an aliquot of 10 μL of each was added to the reaction chamber containing 0.6 mL of Tris buffer (0.1 M, pH 7) and, 1 mM of phenol, hemoglobin (17 μg). COX-1 or -2 enzymes (10 μL) was added to the chamber and incubated for 3 min. The reaction was initiated by the addition of arachidonic acid (10 μL of 1 mg/mL solution). Instantaneous inhibition was measured by using Quick Log Data acquisition and control computer software (Strawberry Tree Inc., Sunnyvale, Calif., USA). The percent inhibition was calculated with respect to DMSO control. Each sample was assayed twice and the standard deviation was calculated for n=2. Aspirin, Celebrex and Vioxx were used as positive controls.

[2] = target: T2, COX-2 enzyme (Homo sapiens, UniProt P35354); test: Cyclooxygenase inhibitory assay (oxygen consumption, arachidonic acid substrate), COX-2; type: biochemical; settings: for COX-2 enzyme inhibition: at 100 ppm (FIG. 1)
T2 sequence (P35354 18-604): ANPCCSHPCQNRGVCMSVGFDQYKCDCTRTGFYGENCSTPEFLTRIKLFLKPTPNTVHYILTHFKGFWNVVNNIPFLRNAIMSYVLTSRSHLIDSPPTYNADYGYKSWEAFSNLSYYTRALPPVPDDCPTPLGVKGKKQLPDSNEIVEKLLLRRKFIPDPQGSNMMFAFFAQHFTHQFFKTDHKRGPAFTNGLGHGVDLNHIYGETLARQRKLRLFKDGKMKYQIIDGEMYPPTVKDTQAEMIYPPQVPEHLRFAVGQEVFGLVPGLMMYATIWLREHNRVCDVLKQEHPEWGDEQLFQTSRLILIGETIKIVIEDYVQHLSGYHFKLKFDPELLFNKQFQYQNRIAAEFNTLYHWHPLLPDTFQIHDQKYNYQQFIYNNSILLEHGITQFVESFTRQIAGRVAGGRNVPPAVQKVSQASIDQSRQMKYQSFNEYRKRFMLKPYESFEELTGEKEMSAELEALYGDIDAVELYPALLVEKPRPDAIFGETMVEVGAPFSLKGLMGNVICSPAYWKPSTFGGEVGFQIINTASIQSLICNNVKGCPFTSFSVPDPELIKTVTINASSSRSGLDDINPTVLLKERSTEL
Description: as §1, §2

| SMILES | COX-1 enzyme inhibition [1] | COX-2 enzyme inhibition [2] | also measured |
| --- | --- | --- | --- |
| O=Cc1ccccc1 [A, Benzaldehyde] | not active | not active | – |
| O=Cc1cccc(O)c1 [C, 3-hydroxybenzaldehyde] | – | – | selective inhibition of COX-1 enzyme ([1]; FIG. 1, 100 ppm, versus COX-2): selectively inhibited COX-1 enzyme |
| O=Cc1ccc(O)c(O)c1O [Compound J, 2,3,4-trihydroxybenzaldehyde] | – | – | activity on COX-1 enzyme ([1]; even at a 500 ppm concentration (FIG. 2)): not active; selective inhibition of COX-2 enzyme ([2]; FIG. 1, 100 ppm, versus COX-1): selectively inhibited COX-2 enzyme; IC50 ([2]; dose response (FIG. 2), read-out: IC50, inhibition of COX-2 (converted)): ~64.9 µM |
| O=Cc1cc(O)c(O)cc1O [K, 2,4,5-trihydroxybenzaldehyde] | not active | not active | – |

Reference: patent US20090018211A1, “Method for inhibiting of COX2 and inflammation with phenolic aldehydes” (Board of Trustees of Michigan State University, priority 2007, published 2009)
